# Patent US20240051937A1, “ISOINDOLINONE AMIDE COMPOUNDS USEFUL TO TREAT DISEASES ASSOCIATED WITH GSPT1” (Monte Rosa Therapeutics, Inc., priority 2021, published 2024)
# Read-outs that look alike come from different tables or passages of the source.
# What was measured:
# [1] = biological target: GSPT1 (Homo sapiens, UniProt P15170+Q96SW2); assay: Immunofluorescence assay for GSPT1 degradation in CAL-Si cells; assay type: cell-based; parameters: CAL-Si cells were purchased from DSMZ (cat. Number ACC302); host or cells: CAL-Si (CAL-51) cells; details: 6 hours treatment
# Description: The representative compounds were tested in an immunofluorescence assay for their activity to bind to degrade GSPT1. CAL-Si cells were purchased from DSMZ (cat. Number ACC302), sub-cultured in 90% Dulbecco's MEM (4.5 g/L glucose, Gibco 11965)+10% […] inactivated FBS (BioConcept, 2-01F136I) and incubated at 37° C., 5% CO2. For the assay, imaging microtiterplate Cell Carrier 96 Ultra (Perkin Elmer 6055302) were pre-coated with Fibronectin (Sigma F085, 30 μl at 0.2 μg/ml) in PBS (100 μl, Gibco 14190) for 45 min at room temperature, rinsed with PBS and CAL-Si cells (30K cells/well) were plated and let to adhere overnight. Cells were treated with compounds typically using a serial dilution ranging from 30 μM to 0.1 nM for 6 hours. Compounds were stored at 10 mM DMSO stocks. Vehicle (DMSO), positive (CC-885, 10 μM) and rescue controls (positive control plus 0.2 μM bortezomib) were also included at this stage. Cells were subsequently rinsed with PBS and fixed in 10% Formalin solution (50 μl, Sigma HT5011)) for 20 mins at room temperature. Following three consecutive PBS washes (100 μl), cells were permeabilized in 0.1% Triton X-100 in PBS (Sigma 93443, 50 μl) for 15 mins at room temperature. Following three further PBS washes, […] blocking buffer (1% BSA, Sigma A4503, in PBS) was added for 45 min for signal-to-noise reduction.
# Primary antibody (human GSPT1, Sigma HPA052488) was diluted in blocking buffer (dil.1/300, 35 μl/well) and incubated with the cells overnight at 4° C. After three PBS washes, Alexa-fluor 488 coupled secondary antibodies (Invitrogen, A32731, dil.1/1000), Alexa-fluor 647-Phalloidin (Invitrogen, A22287, dil.1/200) and DAPI (Thermo, #62248, dil.1/1000) were diluted in blocking buffer and incubated with the samples for 2 hours at room temperature. After three final PBS washes, samples were conserved in […] PBS in the dark, until measurement. Image acquisition was performed on the Operetta High-Content Imager (Perkin-Elmer). Fluorescence intensity of Alexa-Fluor 488 (GSPT1), Alexa-Fluor 647 (Actin) and DAPI (Nucleus) were measured. For the determination of GSPT1 DC50 values, a custom algorithm implemented in the PerkinElmer image analysis software Harmony-Acapella® was developed. After user-defined setting of adjustment parameters, the analysis was run identically without human intervention for all image fields. DAPI staining of the nuclei was used to determine the location of cells using standard nuclei detection modules. Segmentation artifacts were removed by threshold-based filters for area, roundness and intensity. The outline of the cells was determined analogously from the sum of the normalized, smoothed DAPI and Actin channel, starting from each nucleus.
# The Alexa-Fluor 488 (GSPT1) signal intensity in each cell was finally measured, in order to obtain a Mean intensity per cell. GSPT1 degradation (DC50) was calculated after normalization to controls and data import in CDD vault Database, using non-linear regression.
# [2] = biological target: T1, Full length wild-type cereblon CRBN (Homo sapiens, UniProt Q96SW2); assay: Fluorescence polarization (FP) assay indicating cereblon binding
# T1 construct: Full length wild-type cereblon CRBN (80.0 nM, 10 μL) was incubated in assay buffer
# Excerpt: Protocol for Fluorescent Polarization Assay
# Compound activity was monitored in a fluorescence polarization (FP) homogeneous assay using 1-[5-({2-[2-(2-{[2-(2,6-dioxopiperidin-3-yl)-1,3-dioxo-2,3-dihydro-1H-isoindol-4-yl]oxy}acetamido)ethoxy]ethyl}carbamoyl)pentyl]-3,3-dimethyl-2-[(1E,3E)-5-[(2E)-1,3,3-trimethyl-5-sulfo-2,3-dihydro-1H-indol-2-ylidene]penta-1,3-dien-1-yl]-3H-indol-1-ium-5-sulfonate as a fluorescent probe. Unless otherwise stated, all reagents were purchased from Sigma Aldrich. Enzymatic reactions were conducted in Perkin-Elmer Black 384 well ProxiPlate Plus (catalogue no. 6008269) in 10 μL total volume. Full length wild-type cereblon CRBN (80.0 nM, 10 μL) was incubated in assay buffer containing 20 mM HEPES (pH 8.0), […], 0.5 mM TCEP and 0.05% Tween 20 in the presence or absence of compound (300 nL). Inhibitors were stored as 10 mM DMSO stocks in an inert environment (low humidity, dark, low oxygen, room temperature) using the Storage Pod System. Compounds and DMSO were dispensed using the Echo E5XX (Labcyte Inc. USA) to give concentrations from 300 to 0.937 or 3000 to 9.3 nM in a 12 data point curve. […] Following incubation at room temperature for 30 min, the assay was initiated by dispensing the probe to a final concentration of 5 nM (2.5 nL of a 20 μM stock) using the Echo E5XX. FP was measured after a period of 12 hours using a Pherastar plate reader (BMG Labtech, Germany) exciting at 590 nm and measuring the amount of parallel and perpendicular light at 675 nm. The FP signal was subsequently normalized to the no-compound control (i.e., DMSO). Analysis and IC50 values were derived using Dotmatics (Dotmatics UK) software.
# [3] = read-out: Code: activity for GSPT1 degradation (DC50)
# [4] = cereblon binding, CRBN 80.0 nM, probe 5 nM, FP read after 12 hours, read-out: rFP IC50
# [5] = fluorescence polarization assay, read-out: IC50 value (cereblon binding)
# [6] = GSPT1 degradation, read-out: DC50
# Sequence of GSPT1 (P15170 whole entry): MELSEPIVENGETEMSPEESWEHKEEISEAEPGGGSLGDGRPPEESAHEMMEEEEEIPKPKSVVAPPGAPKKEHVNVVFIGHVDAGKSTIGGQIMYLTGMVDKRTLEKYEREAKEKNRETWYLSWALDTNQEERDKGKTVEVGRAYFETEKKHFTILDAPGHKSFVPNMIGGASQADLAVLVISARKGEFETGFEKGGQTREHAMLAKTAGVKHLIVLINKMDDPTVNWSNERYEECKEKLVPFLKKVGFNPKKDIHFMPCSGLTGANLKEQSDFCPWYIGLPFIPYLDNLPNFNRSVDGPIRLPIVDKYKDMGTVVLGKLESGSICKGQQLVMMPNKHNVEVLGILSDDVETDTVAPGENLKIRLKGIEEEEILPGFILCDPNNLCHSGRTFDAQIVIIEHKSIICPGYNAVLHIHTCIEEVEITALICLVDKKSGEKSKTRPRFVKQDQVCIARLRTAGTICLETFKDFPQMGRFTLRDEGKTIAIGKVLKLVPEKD
# Sequence of GSPT1 (Q96SW2 whole entry): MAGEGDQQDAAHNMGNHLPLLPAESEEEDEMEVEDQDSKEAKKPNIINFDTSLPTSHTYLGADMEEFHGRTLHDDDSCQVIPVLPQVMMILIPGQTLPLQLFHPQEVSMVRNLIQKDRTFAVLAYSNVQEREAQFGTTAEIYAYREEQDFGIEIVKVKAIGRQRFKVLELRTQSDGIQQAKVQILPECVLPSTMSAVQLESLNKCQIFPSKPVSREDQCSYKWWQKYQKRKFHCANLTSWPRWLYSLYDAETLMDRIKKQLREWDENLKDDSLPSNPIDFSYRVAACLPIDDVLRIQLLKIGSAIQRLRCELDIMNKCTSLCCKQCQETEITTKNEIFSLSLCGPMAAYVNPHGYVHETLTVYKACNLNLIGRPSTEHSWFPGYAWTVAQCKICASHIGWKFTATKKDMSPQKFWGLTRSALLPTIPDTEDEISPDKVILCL
# Sequence of GSPT1 (Q16531 whole entry partner): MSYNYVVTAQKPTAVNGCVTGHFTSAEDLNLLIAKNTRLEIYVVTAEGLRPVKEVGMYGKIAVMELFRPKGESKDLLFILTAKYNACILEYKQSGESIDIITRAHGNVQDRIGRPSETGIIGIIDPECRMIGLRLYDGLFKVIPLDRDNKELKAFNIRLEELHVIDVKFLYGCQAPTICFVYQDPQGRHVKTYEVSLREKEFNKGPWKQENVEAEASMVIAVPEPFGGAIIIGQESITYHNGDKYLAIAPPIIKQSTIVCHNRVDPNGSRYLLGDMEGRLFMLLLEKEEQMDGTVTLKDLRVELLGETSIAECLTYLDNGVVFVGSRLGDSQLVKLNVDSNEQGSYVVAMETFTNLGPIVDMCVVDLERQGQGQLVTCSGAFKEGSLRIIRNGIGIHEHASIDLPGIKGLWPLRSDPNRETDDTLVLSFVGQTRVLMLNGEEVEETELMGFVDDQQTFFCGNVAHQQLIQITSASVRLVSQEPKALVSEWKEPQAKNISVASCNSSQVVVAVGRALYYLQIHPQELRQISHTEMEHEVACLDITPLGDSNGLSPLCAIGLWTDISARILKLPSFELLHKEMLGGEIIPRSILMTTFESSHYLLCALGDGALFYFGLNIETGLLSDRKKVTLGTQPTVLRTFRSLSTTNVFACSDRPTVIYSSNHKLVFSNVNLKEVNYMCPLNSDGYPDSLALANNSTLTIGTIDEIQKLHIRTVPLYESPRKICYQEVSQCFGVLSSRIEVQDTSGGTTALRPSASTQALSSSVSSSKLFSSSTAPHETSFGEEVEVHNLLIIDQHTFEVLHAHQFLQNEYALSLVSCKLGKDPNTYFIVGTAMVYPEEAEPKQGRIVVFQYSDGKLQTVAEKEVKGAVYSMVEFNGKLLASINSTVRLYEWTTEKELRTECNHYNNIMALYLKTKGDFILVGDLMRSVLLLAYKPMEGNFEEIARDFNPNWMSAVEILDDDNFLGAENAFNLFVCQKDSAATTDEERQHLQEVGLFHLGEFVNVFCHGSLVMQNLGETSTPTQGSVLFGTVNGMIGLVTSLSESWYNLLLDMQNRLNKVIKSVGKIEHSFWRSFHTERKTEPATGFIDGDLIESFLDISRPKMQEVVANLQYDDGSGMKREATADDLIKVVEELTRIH
# T1 sequence (Q96SW2 whole entry): as the sequence (Q96SW2 whole entry) above
smiles,measurement,setting,value
Cc1ncc(NC(=O)CCc2ccc3c(c2)C(=O)N(C2CCC(=O)NC2=O)C3)cc1Cl (centres unmarked) [Compound 3],DC50,[1]; [3],30 to 300 nM
same,IC50,[2]; [4],≤ 500 nM
same,IC50,[2]; [5],< 1100 nM
O=C1CCC(N2Cc3ccc(CCC(=O)NC4CCCCC4)cc3C2=O)C(=O)N1 (centres unmarked) [Compound 4],DC50,[1]; [3],> 300 nM
same,IC50,[2]; [4],500 to 1100 nM
same,IC50,[2]; [5],< 1100 nM
O=C1CCC(N2Cc3ccc(CCC(=O)Nc4cccc(OC(F)(F)F)c4)cc3C2=O)C(=O)N1 (centres unmarked) [Compound 5],DC50,[1]; [3],30 to 300 nM
same,IC50,[2]; [4],1100 to 1700 nM
CC(C)CCNC(=O)CCc1ccc2c(c1)C(=O)N(C1CCC(=O)NC1=O)C2 (centres unmarked) [Compound 6],DC50,[1]; [3],> 300 nM
same,IC50,[2]; [4],> 1700 nM
Cc1cc(C)cc(NC(=O)CCc2ccc3c(c2)C(=O)N(C2CCC(=O)NC2=O)C3)c1 (centres unmarked) [Compound 7],DC50,[1]; [3],≤ 30 nM
same,DC50,[1]; [6],25 nM
same,IC50,[2]; [4],500 to 1100 nM
same,IC50,[2]; [5],< 1100 nM
O=C1CCC(N2Cc3ccc(CCC(=O)Nc4ccc(F)c(Cl)c4)cc3C2=O)C(=O)N1 (centres unmarked) [Compound 8],DC50,[1]; [3],30 to 300 nM
same,IC50,[2]; [4],500 to 1100 nM
same,IC50,[2]; [5],< 1100 nM
O=C(CCc1ccc2c(c1)C(=O)N(C1CCC(=O)NC1=O)C2)NCC1CC1 (centres unmarked) [Compound 9],DC50,[1]; [3],> 300 nM
same,IC50,[2]; [4],500 to 1100 nM
same,IC50,[2]; [5],< 1100 nM
COc1cc(C)c(Cl)cc1NC(=O)CCc1ccc2c(c1)C(=O)N(C1CCC(=O)NC1=O)C2 (centres unmarked) [Compound 10],DC50,[1]; [3],> 300 nM
same,IC50,[2]; [4],500 to 1100 nM
same,IC50,[2]; [5],< 1100 nM
O=C1CCC(N2Cc3ccc(CCC(=O)Nc4cc(Cl)cc(OC(F)(F)F)c4)cc3C2=O)C(=O)N1 (centres unmarked) [Compound 11],DC50,[1]; [3],≤ 30 nM
same,DC50,[1]; [6],17 nM
same,IC50,[2]; [4],> 1700 nM
O=C1CCC(N2Cc3ccc(CCC(=O)NC4CCN(c5ccccn5)CC4)cc3C2=O)C(=O)N1 (centres unmarked) [Compound 12],DC50,[1]; [3],> 300 nM
same,IC50,[2]; [4],500 to 1100 nM
same,IC50,[2]; [5],< 1100 nM
O=C1CCC(N2Cc3ccc(CCC(=O)N4CCCCC4)cc3C2=O)C(=O)N1 (centres unmarked) [Compound 13],DC50,[1]; [3],> 300 nM
same,IC50,[2]; [4],> 1700 nM
COc1ccc(Cl)cc1NC(=O)CCc1ccc2c(c1)C(=O)N(C1CCC(=O)NC1=O)C2 (centres unmarked) [Compound 14],DC50,[1]; [3],> 300 nM
same,IC50,[2]; [4],500 to 1100 nM
same,IC50,[2]; [5],< 1100 nM
O=C1CCC(N2Cc3ccc(CCC(=O)N4CCCC4)cc3C2=O)C(=O)N1 (centres unmarked) [Compound 15],DC50,[1]; [3],> 300 nM
same,IC50,[2]; [4],1100 to 1700 nM
COc1cc(Cl)ccc1NC(=O)CCc1ccc2c(c1)C(=O)N(C1CCC(=O)NC1=O)C2 (centres unmarked) [Compound 16],DC50,[1]; [3],> 300 nM
same,IC50,[2]; [4],≤ 500 nM
same,IC50,[2]; [5],< 1100 nM
O=C1CCC(N2Cc3ccc(CCC(=O)NC4CCCC4)cc3C2=O)C(=O)N1 (centres unmarked) [Compound 17],DC50,[1]; [3],> 300 nM
same,IC50,[2]; [4],500 to 1100 nM
same,IC50,[2]; [5],< 1100 nM
O=C1CCC(N2Cc3ccc(CCC(=O)Nc4cc(F)cc(Cl)c4)cc3C2=O)C(=O)N1 (centres unmarked) [Compound 18],DC50,[1]; [3],> 300 nM
same,IC50,[2]; [4],> 1700 nM
O=C1CCC(N2Cc3ccc(CCC(=O)Nc4cc(Cl)cc(OC5CCNC5)c4)cc3C2=O)C(=O)N1 (centres unmarked) [Compound 19],DC50,[1]; [3],> 300 nM
same,IC50,[2]; [4],500 to 1100 nM
same,IC50,[2]; [5],< 1100 nM
O=C1CCC(N2Cc3ccc(CCC(=O)Nc4ccc(N5CCCCC5)nc4)cc3C2=O)C(=O)N1 (centres unmarked) [Compound 20],DC50,[1]; [3],30 to 300 nM
same,IC50,[2]; [4],500 to 1100 nM
same,IC50,[2]; [5],< 1100 nM
